From patent publication US11458132B2, “Quinolin-2(1H)-one inhibitors of Late SV40 Factor” (TRUSTEES OF BOSTON UNIVERSITY, priority 2020, dated 2022)

Tests used:
[1] = tested on: Huh7 cells; test: Growth inhibition curves in Huh7 cells; assay type: cell-based; conditions: Homo sapiens, Huh-7
[2] = Plasma protein binding (PPB), human; assay type: in vitro ADME
[3] = Plasma protein binding (PPB), mouse; assay type: in vitro ADME
[4] = tested on: FH-B cells; test: Microtubule sedimentation assay; assay type: cell-based, human; conditions: 10 μM Y-27632 30 minutes, then 4 μM FQI1 30 minutes
Protocol: (§1) Cell lysate preparation: For microtubule sedimentation assays, cells were treated as indicated in the figure legends, washed with PBS and incubated in 250 μl of microtubule sedimentation assay lysis buffer (100 mM PIPES pH 6.8, 2 M glycerol, 2 mM EGTA, 5 mM MgCl2, 0.1% Triton X-100) supplemented with 1 μM taxol, protease inhibitor cocktail (1:200, Abcam, ab201111) and phosphatase inhibitor cocktail (1:100, Abcam, ab201115) for 20 minutes at 37° C. Two hundred μl of scraped lysate was centrifuged at 21,000×g for 10 minutes at room temperature. Supernatants were saved as soluble fractions. Pellets were resuspended in 200 μl RIPA buffer (50 mM Tris HCl pH 8.0, 150 mM NaCl, 1% IGEPAL CA630, 0.05% deoxycholic acid) supplemented with 1.05% SDS, protease inhibitor cocktail (1:200) and phosphatase inhibitor cocktail (1:100) and incubated at 100° C. for 15 minutes. Pellet suspensions were centrifuged as before and supernatants were saved as pellet fractions.
(§2) Gel electrophoresis and immunoblotting: Microtubule sedimentation fractions and MLC2 analysis samples were separated by electrophoresis through tris-glycine and tricine polyacrylamide gels, respectively, which were transferred to PVDF membranes. Membranes with microtubule sedimentation fractions and MLC2 analysis samples were blocked in 5% milk in TBST and in 5% BSA in TBST, respectively. After overnight incubation with primary antibody at 4° C., the membranes were washed and incubated with secondary antibody for 1 hour at room temperature. Primary antibodies included anti-α-tubulin (1:2,000, Thermo Fisher Scientific, PA529444), anti-acetylated tubulin (1:1,000, Sigma-Aldrich, T7451), anti-phospho MYL9 (1:200, Thermo Fisher Scientific, PA517727), and anti-β-actin (1:5,000, Sigma-Aldrich, A1978). Secondary antibodies included Goat anti-Rabbit HRP (Thermo Fisher Scientific, 31460; 1:10,000 for anti-α-tubulin; 1:5,000 for anti-phospho MYL9), and Goat anti-Mouse HRP (Thermo Fisher Scientific, 62-6520; 1:5,000 for anti-acetylated tubulin; 1:10,000-1:20,000 for anti-β-actin). Membranes were placed into Pierce™ ECL Western Blotting Substrate (Thermo Fisher Scientific, 32106). Autoradiography film was exposed to each membrane for various times to ensure acquisition of non-saturated exposures. Band intensities were quantified from scanned films by densitometry using ImageJ.

[5] = tested on: RPE cells; test: Microtubule sedimentation assay; assay type: cell-based; conditions: 10 μM Y-27632 30 minutes, then 4 μM FQI1 30 minutes
Protocol: as §1, §2

SMILES	GI50 [1] [µM]	other results
CCOc1cc(N(C)C)ccc1-c1cc(=O)[nH]c2cc3c(cc12)OCCO3 [FQI2-37, 9-(4-(dimethylamino)-2-ethoxyphenyl)-2,3-dihydro-[1,4]dioxino[2,3-g]quinolin-7(6H)-one]	0.0142	fraction unbound [2]: 0.08; fraction unbound [3]: 0.06
CCCOc1cc(N(C)C)ccc1-c1cc(=O)[nH]c2cc3c(cc12)OCCO3 [FQI2-137, 9-(4-(dimethylamino)-2-propoxyphenyl)-2,3-dihydro-[1,4]dioxino[2,3-g]quinolin-7(6H)-one]	0.071	
CC(C)COc1cc(N(C)C)ccc1-c1cc(=O)[nH]c2cc3c(cc12)OCO3 [FQI2-234, 8-(4-(dimethylamino)-2-isobutoxyphenyl)-[1,3]dioxolo[4,5-g]quinolin-6(5H)-one]	0.63	
CC(C)COc1cc(N(C)C)ccc1-c1cc(=O)[nH]c2cc3c(cc12)OCCO3 [FQI2-237, 9-(4-(dimethylamino)-2-isobutoxyphenyl)-2,3-dihydro-[1,4]dioxino[2,3-g]quinolin-7(6H)-one]	0.467	
C[C@@H](N)[C@H]1CC[C@H](C(=O)Nc2ccncc2)CC1 [Y-27632]		FQI1-induced decline in stable microtubules after Y-27632 pre-exposure [4]: quantitatively the same decline in stable microtubules as seen in control cells; FQI1-induced decline in stable microtubules after Y-27632 pre-exposure [5]: quantitatively the same decline in stable microtubules as seen in control cells

Further lines, with some results ahead:

GI50 [1] [µM]	SMILES	other results
0.26	CCCOc1cc(N(C)C)ccc1-c1cc(=O)[nH]c2cc3c(cc12)OCO3 [FQI2-134, 8-(4-(dimethylamino)-2-propoxyphenyl)-[1,3]dioxolo[4,5-g]quinolin-6(5H)-one]	
0.0204	CCOc1cc(Br)ccc1-c1cc(=O)[nH]c2cc3c(cc12)OCO3 [FQI2Br, 8-(4-bromo-2-ethoxyphenyl)-[1,3]dioxolo[4,5-g]quinolin-6(5H)-one]	
0.0562	CCOc1cc(Cl)ccc1-c1cc(=O)[nH]c2cc3c(cc12)OCO3 [FQI2Cl, 8-(2-ethoxy-4-chlorophenyl)-[1,3]dioxolo[4,5-g]quinolin-6(5H)-one]	
0.0562	CCOc1cc(C(F)(F)F)ccc1-c1cc(=O)[nH]c2cc3c(cc12)OCO3 [FQI2F3, 8-(2-ethoxy-4-(trifluoromethyl)phenyl)-[1,3]dioxolo[4,5-g]quinolin-6(5H)-one]	
0.0562	CCOc1cc(F)ccc1-c1cc(=O)[nH]c2cc3c(cc12)OCO3 [FQI2F, 8-(2-ethoxy-4-fluorophenyl)-[1,3]dioxolo[4,5-g]quinolin-6(5H)-one]	
0.141	CCOc1ccccc1-c1cc(=O)[nH]c2cc3c(cc12)OCO3 [FQI2]	
